Data taken from ChEMBL document CHEMBL1201862, “PubChem BioAssay data set” (2004).
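Interpolation was linear, between the two tested concentrations surrounding the appropriate level; five concentrations were tested over 48 hours in 96-well plates. Here, GI50 denotes the concentration required for 50% inhibition of growth.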 Activity calls are given as the source filed them. Cut-off read from the data, not from the text of the source: active = GI50 up to about 1.1 µM and inactive = higher.

Columns and labels:
Assay in all cases: growth of human tumour cells (NCI), 48 h
[1] = system: SR
[2] = system: IGROV-1
[3] = system: HOP-62
[4] = system: TK-10
[5] = system: LOX IMVI
[6] = system: A498
[7] = system: DU-145
[8] = system: EKVX
[9] = system: OVCAR-8
[10] = system: CCRF-CEM
[11] = system: NCI-H460
[12] = system: K562
[13] = system: UO-31
[14] = system: PC-3
[15] = system: SK-MEL-5
[16] = system: MDA-MB-231
[17] = system: HCC 2998
[18] = system: OVCAR-3
[19] = system: HT-29

Measured: GI50

CC1=NC2(CCCCC2)N(Cl)C(=O)C1SC#N (stereo not drawn)
inactive: [1] > 100 µM | [2] 18.2 µM | [3] 22.9 µM | [4] 20.3 µM | [5] 10.7 µM | [6] > 100 µM | [7] 25.2 µM | [8] 17.5 µM | [9] 17.9 µM | [10] 2.58 µM | [11] > 10 µM | [12] 9.46 µM | [13] 18.8 µM | [14] 15.8 µM | [15] 18.2 µM | [16] 17.6 µM | [17] 20.7 µM | [18] 19.6 µM | [19] 20.7 µM

COc1ccc(OC)c([N+](=O)[O-])c1-c1nc2sccn2c1/C=N/N=C(N)N
inactive: [1] 30.6 µM | [2] 91.6 µM | [3] > 100 µM | [4] 51.4 µM | [5] 36.9 µM | [6] > 100 µM | [7] > 100 µM | [8] > 100 µM | [9] > 100 µM | [10] 34.2 µM | [11] 76.6 µM | [12] 43.6 µM | [13] > 100 µM | [14] 53 µM | [15] 28.8 µM | [16] 48.6 µM | [17] 30.4 µM | [18] 58.1 µM | [19] 63.8 µM

O=C(c1cc(Cl)ccc1Cl)N1CCN(C(=O)c2cc(Cl)ccc2Cl)CC1
inactive: [1] > 100 µM | [2] > 100 µM | [3] 38.8 µM | [4] > 100 µM | [5] > 100 µM | [6] 27 µM | [7] > 100 µM | [8] > 100 µM | [9] 30.2 µM | [10] > 100 µM | [11] > 100 µM | [12] > 100 µM | [13] > 100 µM | [14] > 100 µM | [15] 55.6 µM | [16] > 100 µM | [17] > 100 µM | [18] > 100 µM | [19] > 100 µM

Cc1ccc(S(=O)(=O)N2CCN(S(=O)(=O)c3ccc(C)cc3)CCN(S(=O)(=O)c3ccc(C)cc3)Cc3cc(Br)c(Br)cc3CN(S(=O)(=O)c3ccc(C)cc3)CC2)cc1
inactive: [1] > 100 µM | [2] 85.5 µM | [3] > 100 µM | [4] 69.5 µM | [5] 79.4 µM | [6] > 100 µM | [7] > 100 µM | [8] 68.2 µM | [9] > 100 µM | [10] > 100 µM | [11] > 100 µM | [12] > 100 µM | [13] > 100 µM | [14] 46.9 µM | [15] > 100 µM | [16] 23.3 µM | [17] > 100 µM | [18] > 100 µM | [19] > 100 µM

CC1(C)OC[C@@H](C[C@H](O)COCc2ccccc2)O1
inactive: [1] > 100 µM | [2] > 100 µM | [3] > 100 µM | [4] > 100 µM | [5] > 100 µM | [6] > 100 µM | [7] > 100 µM | [8] > 100 µM | [9] > 100 µM | [10] > 100 µM | [11] > 100 µM | [12] > 100 µM | [13] > 100 µM | [14] > 100 µM | [15] > 100 µM | [16] > 100 µM | [17] > 100 µM | [18] > 100 µM | [19] > 100 µM

Cc1cc(C)nc(NC(=S)Nc2cccc(Cl)c2)c1
inactive: [1] 16.6 µM | [2] 16.1 µM | [3] > 75.7 µM | [4] > 35.9 µM | [5] > 100 µM | [6] > 47.3 µM | [7] > 100 µM | [8] > 100 µM | [9] > 100 µM | [10] > 20 µM | [11] > 45.8 µM | [12] > 100 µM | [13] > 100 µM | [14] > 100 µM | [15] > 10 µM | [16] > 100 µM | [17] 65.5 µM | [18] > 100 µM | [19] > 83.4 µM

Cc1cc(S(=O)(=O)Nc2nc(N)n(-c3ccccn3)n2)c(S)cc1Cl
inactive: [1] > 100 µM | [2] > 100 µM | [3] > 100 µM | [4] > 100 µM | [5] > 100 µM | [6] > 100 µM | [7] > 100 µM | [8] > 100 µM | [9] > 100 µM | [10] > 100 µM | [11] > 100 µM | [12] > 100 µM | [13] > 100 µM | [14] > 100 µM | [15] > 100 µM | [16] > 100 µM | [17] > 100 µM | [18] > 100 µM | [19] > 100 µM
